Data set [1] concerns the target T1, CYP3A4 (BDGentest) (Homo sapiens, UniProt P08684).
T1 construct: purchased BDGentest
Kind of data set: New CYP3A4 bioassay with dibenzylfluorescein (DBF) substrate (Foster et al. 2011). Format: biochemical. As to conditions: for IC50: human microsomes; for % Activity relative to dillapiol = 1: new CYP3A4 bioassay, inhibition relative to dillapiol. The procedure: (§1) In the second set of experiments, new CYP3A4 enzyme inhibition assays were conducted with a designed set of analogs and newer method described by Foster et al. (J. Agric. Food Chem, 2011, 59(9):5159-5163). This assay using the substrate dibenzylfluorescein (DBF) is considered more representative of CYP3A4 activity as compared to the benzyloxyresorufin assay previously used (Budzinski et al., 2000, Phytomedicine, 7(4):273-282).
(§2) Aliquots (10 μL) of stock solutions of the undiluted products were screened for their ability to inhibit CYP3A4 (BDGentest) metabolism of the non-fluorescent dibenzylfluorescein (DBF) substrates to the fluorescent metabolite using an in vitro fluorometric microtiter plate assay (CytoFluor Series 4000 multi-well plate reader). Briefly, assays were performed with 10 μL of product in clear-bottom, opaque-welled microtiter plates (96 well, Corning Costar). Control and control blank wells contained 5% ethanol, and test and test blank wells contained the product. All wells tested contained distilled water, β-nicotinamide adenine dinucleotide phosphate, reduced form (NADPH, Sigma Chemicals), and the enzyme substrate DBF (final concentration of 1 μM/well), for a total reaction volume of 200 μL. Control and test wells also contained live isozyme, within human microsomes, in phosphate buffer solution (PBS; 0.5 M, pH 7.4), and control blank and test blank wells contained denatured isoenzyme in PBS. Fluorescence was measured at 485 nm excitation and 530 nm emission, with a gain of 50.

Data set [2] has as its target T2, CYP3A4 (Homo sapiens, UniProt P08684).
T2 construct: purchased BDGentest
Described as above. Format: biochemical. To be noted: human, CYP3A4 (BDGentest) isozyme within human microsomes, pH 7.4, probe dibenzylfluorescein (DBF), 1 μM final, DBF substrate 1 μM, human microsomes. As for the experimental part: as §1, §2

Data set [3] concerns the target T3, human cytochrome CYP3A4 (Homo sapiens, UniProt P08684). Briefly: CYP3A4 inhibition assay of dillapiol derivatives (earlier benzyloxyresorufin assay). It is filed as biochemical. As to conditions: for Rel. Activity Dillapiol = 1.0: CYP3A4 inhibition relative to dillapiol. As for the experimental part: A suite of dillapiol derivatives were synthesized and assayed for their capacity to inhibit human cytochrome CYP3A4. For each molecule, experimental IC50 values for CYP3A4 inhibition were determined. These IC50 values together with the log of the octanol-water partition coefficient (logP) and molecular refractivity (MR) are shown in Table 1, and were used as parameters to model a quantitative structure-activity relationship (QSAR). The resulting equations were used to guide the design of further derivatives with enhanced CYP3A4 inhibition.
as §1

The test system of data set [4] is mosquito larvae. To be noted: co-administration of dillapiol with alpha-terthienyl; increased toxicity in mosquito larvae; cited from earlier work.
The target of data set [5] is T3, human cytochrome CYP3A4. As to conditions: Budzinski et al., 2000; cited from earlier work.
For data set [6], the system named is parasitemia. To be noted: co-administration of dillapiol with genudin, mice; cited from earlier work.
[7] abbreviates: DBF substrate 1 μM, read-out: IC50 (converted).
Setting [8] is: Table 1, CYP3A4 inhibition, read-out: IC50.

“And” between values parts separate entries of the source, which are not always exact repeats. Identical values can stand only once. Like-named read-outs stand apart in the source and are kept apart here.

T3 sequence (P08684 whole entry): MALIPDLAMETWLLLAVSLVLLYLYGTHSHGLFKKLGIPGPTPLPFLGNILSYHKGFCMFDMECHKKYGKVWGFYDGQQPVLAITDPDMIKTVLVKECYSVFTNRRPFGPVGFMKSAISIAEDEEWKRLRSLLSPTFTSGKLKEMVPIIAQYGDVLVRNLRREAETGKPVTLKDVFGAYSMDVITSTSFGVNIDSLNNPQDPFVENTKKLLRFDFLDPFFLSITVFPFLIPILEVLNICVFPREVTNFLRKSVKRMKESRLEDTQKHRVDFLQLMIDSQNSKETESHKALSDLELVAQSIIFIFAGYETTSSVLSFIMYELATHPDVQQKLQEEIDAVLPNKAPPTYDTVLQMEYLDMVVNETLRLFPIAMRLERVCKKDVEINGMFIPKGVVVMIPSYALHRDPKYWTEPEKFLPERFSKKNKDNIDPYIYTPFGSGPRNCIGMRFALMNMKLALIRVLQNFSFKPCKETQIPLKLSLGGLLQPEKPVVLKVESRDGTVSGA
T1 sequence (P08684 whole entry): as above
T2 sequence (P08684 whole entry): as above

Usually IC50 stands for the concentration that inhibits the measured activity by half. Take `COc1c(CCCO)cc2c(c1OC)OCO2`: the IC50 in data set [1] (setting [7]) is 16.6 µM; in data set [2], 16 µM. The “% Activity relative to dillapiol = 1” value in data set [1] came out at 0.57.

On to `COc1c(/C=C/CC(O)(c2ccccc2)c2ccccc2)cc2c(c1OC)OCO2` [Compound 1], for which, in data set [3] (Table 1), the “CYP3A4 inhibition compared with dillapiol (in words)” value is reported as “at least four times lower than dillapiol”; the “Rel. Activity Dillapiol = 1.0” value is 100 and 114. Also, the IC50 in data set [3] (setting [8]) was 3.6 µM. Moreover, in data set [1], the “CYP3A4 inhibition (in words)” value was “increased inhibition of CYP3A4 compared to dillapiol” and the “% Activity relative to dillapiol = 1” value came out at 5.8. In addition, the IC50 in data set [1] (setting [7]) was 1.58 µM.

On to `C=CCc1cc2c(c(CC=C)c1O)OCO2` [Compound 11], for which the “Rel. Activity Dillapiol = 1.0” value in data set [3] (Table 1) was found to be 1.9. For the same compound, the IC50 in data set [3] (setting [8]) came out at 210 µM.

With `COc1c(CCCOC(=O)c2ccccc2)cc2c(c1OC)OCO2` [Compound 12], in data set [3] (Table 1), the “CYP3A4 inhibition compared with dillapiol (in words)” value was “at least four times lower than dillapiol” and the “Rel. Activity Dillapiol = 1.0” value was found to be 29. Moreover, in data set [3] (setting [8]), the half-maximal inhibitory concentration (IC50) worked out at 14 µM. For the same compound, in data set [1], the “CYP3A4 inhibition (in words)” value is “increased inhibition of CYP3A4 compared to dillapiol” and the “% Activity relative to dillapiol = 1” value is 4.4. The IC50 in data set [1] (setting [7]) is 2.1 µM and 2.11 µM.

Take `C=CCc1cc2c(c(COCC(=O)OCC)c1OC)OCO2` [Compound 13]: in data set [3] (Table 1), the “CYP3A4 inhibition compared with dillapiol (in words)” value is “at least four times lower than dillapiol” and the “Rel. Activity Dillapiol = 1.0” value is on record as 4.2. Moreover, in data set [3] (setting [8]), the IC50 was 98 µM.

With `C=CCc1cc2c(cc1O)OCO2` [Compound 14], the “Rel. Activity Dillapiol = 1.0” value in data set [3] (Table 1) was 0.75. Further, the 50% inhibitory concentration (IC50) in data set [3] (setting [8]) came out at 550 µM.

For `C=CCc1cc2c(c(S(C)(=O)=O)c1OC)OCO2` [Compound 15], in data set [3] (Table 1), the “Rel. Activity Dillapiol = 1.0” value is recorded as 0.37. The 50% inhibitory concentration (IC50) in data set [3] (setting [8]) was 1100 µM.

Take `C=CCc1cc2c(c(Sc3ccccc3)c1OC)OCO2` [Compound 16]: the “Rel. Activity Dillapiol = 1.0” value in data set [3] (Table 1) was 0.84. Moreover, the IC50 in data set [3] (setting [8]) was determined as 480 µM.

For the compound `C=CCc1cc2c(c(Br)c1O)OCO2` [Compound 17], the “Rel. Activity Dillapiol = 1.0” value in data set [3] (Table 1) worked out at 0.68. The IC50 in data set [3] (setting [8]) was determined as 600 µM.

The compound `C=CCc1cc2c(c(SC)c1OC)OCO2` [Compound 18] showed an IC50 in data set [3] of 320 µM. Besides, in data set [3] (Table 1), the “Rel. Activity Dillapiol = 1.0” value came to 1.3.

As to `C=CCc1cc2c(c(SC)c1O)OCO2` [Compound 19], the “Rel. Activity Dillapiol = 1.0” value in data set [3] (Table 1) amounted to 1.0. Moreover, the half-inhibitory concentration (IC50) in data set [3] (setting [8]) amounted to 420 µM.

For `C=CCc1cc2c(c(Sc3ccc(OC)cc3)c1OC)OCO2` [Compound 22], in data set [3] (Table 1), the “Rel. Activity Dillapiol = 1.0” value is 0.67. For the same compound, in data set [3] (setting [8]), the concentration for half-maximal inhibition (IC50) came out at 660 µM.

For `C=CCc1cc2c(c(S(=O)(=O)c3ccc(OC)cc3)c1O)OCO2` [Compound 23], the “Rel. Activity Dillapiol = 1.0” value in data set [3] (Table 1) was determined as 1.8. In data set [3] (setting [8]), the IC50 amounted to 230 µM.

With `C=CCc1cc2c(c(SCc3ccccc3)c1O)OCO2` [Compound 24], in data set [3] (Table 1), the “Rel. Activity Dillapiol = 1.0” value was 1.6.

As to `C=CCc1cc2c(c(SCc3ccccc3)c1OC)OCO2` [Compound 25], in data set [3] (Table 1), the “CYP3A4 inhibition compared with dillapiol (in words)” value is listed as “at least four times lower than dillapiol”; the “Rel. Activity Dillapiol = 1.0” value was 9 and 9.3. Besides, the concentration for half-maximal inhibition (IC50) in data set [3] (setting [8]) amounted to 44 µM.

In the case of `C=CCc1cc2c(c([S+]([O-])c3ccccc3)c1OC)OCO2` (stereo not shown) [Compound 26], the “Rel. Activity Dillapiol = 1.0” value in data set [3] (Table 1) is 2.7. For the same compound, the half-inhibitory concentration (IC50) in data set [3] (setting [8]) came out at 150 µM.

As to `C=CCc1cc2c(c([S+]([O-])Cc3ccccc3)c1OC)OCO2` (stereo not shown) [Compound 27], in data set [3] (Table 1), the “CYP3A4 inhibition compared with dillapiol (in words)” value is “at least four times lower than dillapiol” and the “Rel. Activity Dillapiol = 1.0” value amounted to 6.4. Further, the IC50 in data set [3] (setting [8]) came to 64 µM.

For the compound `C=CCc1cc2c(c(OC)c1OC)OCO2` [dillapiol, 4,5 dimethoxy-6-(2-propenyl)-1,3-benzodioxole], the synergism factor in data set [4] is given as 1.9. Moreover, the IC50 was 410 µM in data set [3] and 9.45 µM in data set [1] (IC50, DBF substrate 1 μM). The “Rel. Activity Dillapiol = 1.0” value in data set [3] (Table 1) stood at 1.0. The “% Activity relative to dillapiol = 1” value in data set [1] came out at 1. Besides, the “inhibition of human cytochrome P450 3A4 (in words)” value in data set [5] is recorded as “inhibits the human cytochrome P450 3A4 (CYP3A4) enzyme”. Further, the “increase of parasitemia clearance” value in data set [6] was 29%.

(Values after US9386767B2, “Derivatives of dillapiol and related monolignans and use thereof” (UNIVERSITY OF OTTAWA, priority 2011, dated 2016).)
